Reference: the NIST ThermoML archive (doi:10.1016/j.jct.2015.02.024)
Numbers after ± are expanded uncertainties.

Assay: activity coefficient (dimensionless); of the first substance listed, at infinite dilution; xn = mol fraction of the nth substance listed
Conditions: 101 kPa, Liquid, Chromatography, x1 = 0

SMILES	activity coefficient (318.15 K)	activity coefficient (328.15 K)	activity coefficient (338.15 K)	activity coefficient (348.15 K)	activity coefficient (358.15 K)	activity coefficient (368.15 K)	activity coefficient (298.15 K)	activity coefficient (308.15 K)
CCC(C)O (configuration not stated) [butan-2-ol] + C[N+]1(CCCO)CCOCC1.O=S(=O)([N-]S(=O)(=O)C(F)(F)F)C(F)(F)F	2.59 ± 0.18	2.52 ± 0.17	2.46 ± 0.17	2.4 ± 0.16	2.34 ± 0.16	2.29 ± 0.16		
CCCC=O [butanal] + C[N+]1(CCCO)CCOCC1.O=S(=O)([N-]S(=O)(=O)C(F)(F)F)C(F)(F)F	1.37 ± 0.09	1.4 ± 0.09	1.43 ± 0.09	1.45 ± 0.1	1.48 ± 0.1	1.5 ± 0.1		
C1CCCCCC1 [cycloheptane] + C[N+]1(CCCO)CCOCC1.O=S(=O)([N-]S(=O)(=O)C(F)(F)F)C(F)(F)F	82.8 ± 5.7	71 ± 4.9	62.6 ± 4.3	54.5 ± 3.7	47.2 ± 3.2	43 ± 2.9		
C1CCCCC1 [cyclohexane] + C[N+]1(CCCO)CCOCC1.O=S(=O)([N-]S(=O)(=O)C(F)(F)F)C(F)(F)F	66 ± 4.5	55.7 ± 3.8	48.3 ± 3.3	42.2 ± 2.9	36.3 ± 2.5	32.2 ± 2.2		
C1=CCCCC1 [cyclohexene] + C[N+]1(CCCO)CCOCC1.O=S(=O)([N-]S(=O)(=O)C(F)(F)F)C(F)(F)F	23.7 ± 1.6	21.6 ± 1.5	20.2 ± 1.4	18.6 ± 1.3	17.1 ± 1.2	16.2 ± 1.1		
C1CCCCCCC1 [cyclooctane] + C[N+]1(CCCO)CCOCC1.O=S(=O)([N-]S(=O)(=O)C(F)(F)F)C(F)(F)F	110 ± 8	93.7 ± 6.4	83.6 ± 5.7	71.9 ± 4.9	64.4 ± 4.4	58.6 ± 4		
C1CCCC1 [cyclopentane] + C[N+]1(CCCO)CCOCC1.O=S(=O)([N-]S(=O)(=O)C(F)(F)F)C(F)(F)F	41 ± 2.8	34.7 ± 2.4	30.6 ± 2.1	27.2 ± 1.9	23.5 ± 1.6	21.4 ± 1.5		
CCCCCCCCCC [decane] + C[N+]1(CCCO)CCOCC1.O=S(=O)([N-]S(=O)(=O)C(F)(F)F)C(F)(F)F	624 ± 43	543 ± 37	479 ± 33	419 ± 29	363 ± 25	328 ± 23		
CCOCC [diethyl ether] + C[N+]1(CCCO)CCOCC1.O=S(=O)([N-]S(=O)(=O)C(F)(F)F)C(F)(F)F	4.94 ± 0.34	5 ± 0.34	5.05 ± 0.34	5.1 ± 0.35	5.14 ± 0.35	5.19 ± 0.35		
CC(C)OC(C)C [diisopropyl ether] + C[N+]1(CCCO)CCOCC1.O=S(=O)([N-]S(=O)(=O)C(F)(F)F)C(F)(F)F	17.3 ± 1.2	17.1 ± 1.2	16.9 ± 1.2	16.7 ± 1.1	16.5 ± 1.1	16.3 ± 1.1		
CCCOCCC [dipropyl ether] + C[N+]1(CCCO)CCOCC1.O=S(=O)([N-]S(=O)(=O)C(F)(F)F)C(F)(F)F	20.1 ± 1.4	19.5 ± 1.3	18.9 ± 1.3	18.4 ± 1.3	17.9 ± 1.2	17.4 ± 1.2		
CCO [ethanol] + C[N+]1(CCCO)CCOCC1.O=S(=O)([N-]S(=O)(=O)C(F)(F)F)C(F)(F)F	1.4 ± 0.09	1.37 ± 0.09	1.34 ± 0.09	1.3 ± 0.08	1.28 ± 0.08	1.25 ± 0.08		
CCOC(C)=O [ethyl acetate] + C[N+]1(CCCO)CCOCC1.O=S(=O)([N-]S(=O)(=O)C(F)(F)F)C(F)(F)F	1.5 ± 0.1	1.56 ± 0.1	1.61 ± 0.11	1.66 ± 0.11	1.7 ± 0.11	1.77 ± 0.12		
CCc1ccccc1 [ethylbenzene] + C[N+]1(CCCO)CCOCC1.O=S(=O)([N-]S(=O)(=O)C(F)(F)F)C(F)(F)F	7.33 ± 0.5	7.28 ± 0.5	7.22 ± 0.49	7.18 ± 0.49	7.13 ± 0.49	7.09 ± 0.48		
CCCCCCC [heptane] + C[N+]1(CCCO)CCOCC1.O=S(=O)([N-]S(=O)(=O)C(F)(F)F)C(F)(F)F	223 ± 15	192 ± 13	162 ± 11	141 ± 10	116 ± 8	105 ± 7	345 ± 24	280 ± 19
C=CCCCC [hex-1-ene] + C[N+]1(CCCO)CCOCC1.O=S(=O)([N-]S(=O)(=O)C(F)(F)F)C(F)(F)F	58.2 ± 4	51.7 ± 3.5	45.2 ± 3.1	40.5 ± 2.8	35.9 ± 2.5			
CCCCCC [hexane] + C[N+]1(CCCO)CCOCC1.O=S(=O)([N-]S(=O)(=O)C(F)(F)F)C(F)(F)F	154 ± 11	122 ± 8					267 ± 18	201 ± 14
CO [methanol] + C[N+]1(CCCO)CCOCC1.O=S(=O)([N-]S(=O)(=O)C(F)(F)F)C(F)(F)F	0.945 ± 0.06	0.929 ± 0.059	0.915 ± 0.058	0.899 ± 0.057	0.884 ± 0.056	0.872 ± 0.056		
CCCC(=O)OC [methyl butanoate] + C[N+]1(CCCO)CCOCC1.O=S(=O)([N-]S(=O)(=O)C(F)(F)F)C(F)(F)F	2.41 ± 0.16	2.48 ± 0.17	2.56 ± 0.17	2.62 ± 0.18	2.68 ± 0.18	2.75 ± 0.19		
COC(C)=O [methyl ethanoate] + C[N+]1(CCCO)CCOCC1.O=S(=O)([N-]S(=O)(=O)C(F)(F)F)C(F)(F)F	0.926 ± 0.059	0.971 ± 0.061	1.02 ± 0.06	1.06 ± 0.07	1.1 ± 0.07	1.14 ± 0.07		
CCC(=O)OC [methyl propanoate] + C[N+]1(CCCO)CCOCC1.O=S(=O)([N-]S(=O)(=O)C(F)(F)F)C(F)(F)F	1.45 ± 0.1	1.51 ± 0.1	1.57 ± 0.1	1.63 ± 0.11	1.68 ± 0.11	1.74 ± 0.12		
CC1CCCCC1 [methylcyclohexane] + C[N+]1(CCCO)CCOCC1.O=S(=O)([N-]S(=O)(=O)C(F)(F)F)C(F)(F)F	102 ± 7	84.7 ± 5.8	73.3 ± 5	64.4 ± 4.4	55 ± 3.8	49.1 ± 3.4		
CCCCCCCCC [nonane] + C[N+]1(CCCO)CCOCC1.O=S(=O)([N-]S(=O)(=O)C(F)(F)F)C(F)(F)F	445 ± 31	385 ± 26	332 ± 23	287 ± 20	249 ± 17	224 ± 15		
